Calls of active or inactive are those of the source.
What was measured:
[1] = molecular target: T1, Short transient receptor potential channel 4 (Mus musculus, UniProt Q9QUQ5); experiment: block of DAMGO-driven TRPC4 calcium entry – cell-based, HEK293 TRPC4/mu-opioid, Fluo-4 calcium, dose response (AID 434942); assay type: functional;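 note: potency of inhibitors blocking the TRPC4 calcium response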
T1 sequence (Q9QUQ5 whole entry): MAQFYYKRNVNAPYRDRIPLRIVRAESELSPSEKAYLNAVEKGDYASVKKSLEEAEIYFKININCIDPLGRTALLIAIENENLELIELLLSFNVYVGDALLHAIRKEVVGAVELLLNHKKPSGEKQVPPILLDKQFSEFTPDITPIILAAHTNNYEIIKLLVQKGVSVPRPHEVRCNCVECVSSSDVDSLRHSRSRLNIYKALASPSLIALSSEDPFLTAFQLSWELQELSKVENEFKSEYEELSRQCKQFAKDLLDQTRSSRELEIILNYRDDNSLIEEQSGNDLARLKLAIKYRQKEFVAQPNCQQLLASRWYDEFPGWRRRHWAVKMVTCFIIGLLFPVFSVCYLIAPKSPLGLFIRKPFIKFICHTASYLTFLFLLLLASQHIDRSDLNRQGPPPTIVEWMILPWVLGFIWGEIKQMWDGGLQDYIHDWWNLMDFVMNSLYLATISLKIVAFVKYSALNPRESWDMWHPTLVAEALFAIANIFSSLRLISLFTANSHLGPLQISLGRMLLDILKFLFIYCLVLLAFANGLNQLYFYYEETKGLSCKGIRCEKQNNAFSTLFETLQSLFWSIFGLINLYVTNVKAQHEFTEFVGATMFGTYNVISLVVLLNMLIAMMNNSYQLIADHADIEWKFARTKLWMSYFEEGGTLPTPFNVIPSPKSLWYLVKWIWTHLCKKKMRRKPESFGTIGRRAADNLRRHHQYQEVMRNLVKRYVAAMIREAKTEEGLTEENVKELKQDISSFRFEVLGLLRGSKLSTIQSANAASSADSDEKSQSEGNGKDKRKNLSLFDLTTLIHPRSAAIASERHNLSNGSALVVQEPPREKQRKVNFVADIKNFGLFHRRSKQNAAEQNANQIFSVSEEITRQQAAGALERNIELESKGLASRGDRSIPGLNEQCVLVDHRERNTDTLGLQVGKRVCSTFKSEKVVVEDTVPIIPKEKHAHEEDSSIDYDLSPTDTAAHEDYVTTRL

[2] = molecular target: T2, Carboxy-terminal domain RNA polymerase II polypeptide A small phosphatase 1 (Homo sapiens, UniProt Q9GZU7); experiment: CTDSP1 inhibitors, concentration-response, biochemical, absorbance readout, ultra-high-throughput screen actives (AID 540297); assay type: functional
T2 sequence (Q9GZU7 whole entry): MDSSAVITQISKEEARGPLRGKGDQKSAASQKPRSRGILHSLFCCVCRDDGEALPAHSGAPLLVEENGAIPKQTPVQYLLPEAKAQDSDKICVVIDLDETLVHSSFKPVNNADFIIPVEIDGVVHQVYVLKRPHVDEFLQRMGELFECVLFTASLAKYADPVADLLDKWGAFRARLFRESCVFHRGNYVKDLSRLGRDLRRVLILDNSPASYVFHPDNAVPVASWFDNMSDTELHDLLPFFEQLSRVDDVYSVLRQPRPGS

[3] = molecular target: Peroxisome proliferator-activated receptor gamma/Nuclear receptor coactivator 3 (Homo sapiens, UniProt P37231); experiment: (§1) TR-FRET dose response biochemical High Throughput Screening assay for agonists of the steroid receptor coactivator 3 (SRC-3) recruitment by the peroxisome proliferator-activated receptor gamma (PPAR gamma): non-selective agonists. [Related pubchem assays: 1301 (Confirmation screen.), 1048 (Primary screen.)]; assay type: functional
[4] = molecular target: Peroxisome proliferator-activated receptor gamma/Nuclear receptor coactivator 1 (Homo sapiens, UniProt P37231); experiment: as §1, with “1 (SRC-1)” for “3 (SRC-3)”, “assays (depositor defined):AID1300, AID1808, AID504735, AID631]” for “assays: 1301 (Confirmation screen.), 1048 (Primary screen.)]”; assay type: protein assay
[5] = molecular target: Peroxisome proliferator-activated receptor gamma/Nuclear receptor coactivator 2 (Homo sapiens, UniProt P37231); experiment: TR-FRET dose response biochemical High Throughput Screening assay for agonists of the steroid receptor coactivator 2 (SRC-2) recruitment by the peroxisome proliferator-activated receptor gamma (PPAR gamma): non-selective agonists. [Related pubchem assays: 1297, 1032 ]; assay type: functional
[6] = molecular target: T3, Coagulation factor XII (Homo sapiens, UniProt P00748); assay type: functional;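 note: activated factor XIIa alpha cleaving a fluorogenic AMC peptide substrate; inhibitor potency from loss of enzyme activity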
T3 sequence (P00748 whole entry): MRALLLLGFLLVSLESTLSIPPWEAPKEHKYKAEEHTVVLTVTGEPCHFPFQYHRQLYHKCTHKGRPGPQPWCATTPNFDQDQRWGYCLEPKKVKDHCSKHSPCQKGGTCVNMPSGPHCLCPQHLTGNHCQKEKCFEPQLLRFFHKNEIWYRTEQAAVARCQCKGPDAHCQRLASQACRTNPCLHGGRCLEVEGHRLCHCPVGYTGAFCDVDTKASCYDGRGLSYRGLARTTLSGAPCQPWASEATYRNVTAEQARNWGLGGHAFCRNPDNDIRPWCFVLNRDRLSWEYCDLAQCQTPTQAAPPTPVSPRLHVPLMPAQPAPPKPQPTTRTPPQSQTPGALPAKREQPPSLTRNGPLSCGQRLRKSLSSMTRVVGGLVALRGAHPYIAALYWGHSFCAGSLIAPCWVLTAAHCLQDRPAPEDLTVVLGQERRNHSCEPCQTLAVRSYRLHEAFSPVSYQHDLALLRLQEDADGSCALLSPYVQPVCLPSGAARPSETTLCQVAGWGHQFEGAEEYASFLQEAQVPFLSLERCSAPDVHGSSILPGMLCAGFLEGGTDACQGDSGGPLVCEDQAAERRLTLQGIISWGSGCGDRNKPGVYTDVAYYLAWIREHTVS

[7] = molecular target: Large T antigen (Simian virus 40, UniProt P03070); assay type: functional, Betapolyomavirus macacae;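 note: Confirmatory-stage PubChem screen for compounds that inhibit SV40 T antigen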
Sequence of Large T antigen (P03070 whole entry): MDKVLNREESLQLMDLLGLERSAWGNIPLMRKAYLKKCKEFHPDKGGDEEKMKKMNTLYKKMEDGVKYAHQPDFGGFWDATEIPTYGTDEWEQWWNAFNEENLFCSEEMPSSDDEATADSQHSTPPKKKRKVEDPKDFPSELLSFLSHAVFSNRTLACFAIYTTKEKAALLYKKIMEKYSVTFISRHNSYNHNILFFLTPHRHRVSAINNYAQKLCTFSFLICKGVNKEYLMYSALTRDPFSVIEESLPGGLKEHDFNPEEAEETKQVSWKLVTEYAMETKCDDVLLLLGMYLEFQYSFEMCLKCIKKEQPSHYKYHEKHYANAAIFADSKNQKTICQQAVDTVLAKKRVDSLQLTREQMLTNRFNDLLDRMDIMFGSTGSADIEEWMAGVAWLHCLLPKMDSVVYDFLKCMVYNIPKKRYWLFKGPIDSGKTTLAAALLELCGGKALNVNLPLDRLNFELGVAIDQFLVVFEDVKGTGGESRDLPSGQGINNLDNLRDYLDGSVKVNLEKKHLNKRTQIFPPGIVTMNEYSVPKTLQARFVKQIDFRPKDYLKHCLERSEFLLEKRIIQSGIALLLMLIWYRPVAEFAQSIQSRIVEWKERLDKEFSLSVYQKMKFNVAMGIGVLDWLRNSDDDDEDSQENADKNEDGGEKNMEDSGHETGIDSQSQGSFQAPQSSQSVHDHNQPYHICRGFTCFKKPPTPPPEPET

Sequence of Peroxisome proliferator-activated receptor gamma/Nuclear receptor coactivator 3 (P37231 whole entry): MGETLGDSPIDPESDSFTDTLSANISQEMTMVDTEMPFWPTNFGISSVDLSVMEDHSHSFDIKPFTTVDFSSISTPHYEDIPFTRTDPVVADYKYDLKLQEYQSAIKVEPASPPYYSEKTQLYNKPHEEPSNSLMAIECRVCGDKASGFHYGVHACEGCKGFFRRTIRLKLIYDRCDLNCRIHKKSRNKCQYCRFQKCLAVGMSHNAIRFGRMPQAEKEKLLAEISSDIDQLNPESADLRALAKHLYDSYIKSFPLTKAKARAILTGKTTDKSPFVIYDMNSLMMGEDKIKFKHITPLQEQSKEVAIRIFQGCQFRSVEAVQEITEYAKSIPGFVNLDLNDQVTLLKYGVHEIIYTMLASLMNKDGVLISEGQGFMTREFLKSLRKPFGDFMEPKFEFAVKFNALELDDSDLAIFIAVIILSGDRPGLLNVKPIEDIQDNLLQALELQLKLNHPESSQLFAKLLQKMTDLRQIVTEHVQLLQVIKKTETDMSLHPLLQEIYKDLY
Sequence of Peroxisome proliferator-activated receptor gamma/Nuclear receptor coactivator 3 (Q9Y6Q9 whole entry, further chain): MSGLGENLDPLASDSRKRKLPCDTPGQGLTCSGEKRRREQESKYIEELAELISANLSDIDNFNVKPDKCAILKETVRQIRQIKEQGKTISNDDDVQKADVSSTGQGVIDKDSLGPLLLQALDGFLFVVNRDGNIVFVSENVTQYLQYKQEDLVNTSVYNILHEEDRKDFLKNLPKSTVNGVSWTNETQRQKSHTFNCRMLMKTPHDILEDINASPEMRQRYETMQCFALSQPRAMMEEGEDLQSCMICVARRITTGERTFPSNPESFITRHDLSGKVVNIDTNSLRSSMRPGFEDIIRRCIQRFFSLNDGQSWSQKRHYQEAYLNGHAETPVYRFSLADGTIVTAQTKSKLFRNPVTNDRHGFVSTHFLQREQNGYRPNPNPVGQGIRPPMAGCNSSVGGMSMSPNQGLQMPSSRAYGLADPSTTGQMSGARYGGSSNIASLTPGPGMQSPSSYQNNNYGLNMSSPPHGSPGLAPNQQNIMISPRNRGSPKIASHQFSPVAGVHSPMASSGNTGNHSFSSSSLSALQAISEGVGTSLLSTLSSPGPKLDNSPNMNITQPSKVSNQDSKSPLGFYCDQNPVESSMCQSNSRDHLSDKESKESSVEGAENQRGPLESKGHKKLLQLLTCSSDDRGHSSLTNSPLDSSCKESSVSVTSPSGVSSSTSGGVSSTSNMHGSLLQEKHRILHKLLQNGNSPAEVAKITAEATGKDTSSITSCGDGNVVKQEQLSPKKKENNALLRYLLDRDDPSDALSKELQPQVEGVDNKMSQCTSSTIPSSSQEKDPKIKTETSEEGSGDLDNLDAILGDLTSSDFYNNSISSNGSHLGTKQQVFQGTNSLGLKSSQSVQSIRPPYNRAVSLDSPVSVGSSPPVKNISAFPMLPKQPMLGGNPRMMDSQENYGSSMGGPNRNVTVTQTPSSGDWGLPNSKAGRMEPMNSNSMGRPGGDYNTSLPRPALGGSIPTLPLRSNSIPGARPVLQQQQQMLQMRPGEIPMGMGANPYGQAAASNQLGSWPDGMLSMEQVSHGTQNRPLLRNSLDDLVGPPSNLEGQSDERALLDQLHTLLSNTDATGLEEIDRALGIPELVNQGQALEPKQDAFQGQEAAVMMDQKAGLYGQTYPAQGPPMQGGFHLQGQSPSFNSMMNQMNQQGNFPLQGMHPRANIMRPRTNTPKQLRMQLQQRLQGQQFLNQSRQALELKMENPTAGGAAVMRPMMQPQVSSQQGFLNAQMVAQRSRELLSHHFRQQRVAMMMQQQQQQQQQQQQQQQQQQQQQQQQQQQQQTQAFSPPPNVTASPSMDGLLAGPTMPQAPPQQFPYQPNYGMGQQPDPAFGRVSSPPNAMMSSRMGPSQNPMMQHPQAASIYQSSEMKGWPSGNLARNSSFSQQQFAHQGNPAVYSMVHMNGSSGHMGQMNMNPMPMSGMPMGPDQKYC
Sequence of Peroxisome proliferator-activated receptor gamma/Nuclear receptor coactivator 2 (P37231 whole entry): as the sequence (P37231 whole entry) above
Sequence of Peroxisome proliferator-activated receptor gamma/Nuclear receptor coactivator 2 (Q15596 whole entry, further chain): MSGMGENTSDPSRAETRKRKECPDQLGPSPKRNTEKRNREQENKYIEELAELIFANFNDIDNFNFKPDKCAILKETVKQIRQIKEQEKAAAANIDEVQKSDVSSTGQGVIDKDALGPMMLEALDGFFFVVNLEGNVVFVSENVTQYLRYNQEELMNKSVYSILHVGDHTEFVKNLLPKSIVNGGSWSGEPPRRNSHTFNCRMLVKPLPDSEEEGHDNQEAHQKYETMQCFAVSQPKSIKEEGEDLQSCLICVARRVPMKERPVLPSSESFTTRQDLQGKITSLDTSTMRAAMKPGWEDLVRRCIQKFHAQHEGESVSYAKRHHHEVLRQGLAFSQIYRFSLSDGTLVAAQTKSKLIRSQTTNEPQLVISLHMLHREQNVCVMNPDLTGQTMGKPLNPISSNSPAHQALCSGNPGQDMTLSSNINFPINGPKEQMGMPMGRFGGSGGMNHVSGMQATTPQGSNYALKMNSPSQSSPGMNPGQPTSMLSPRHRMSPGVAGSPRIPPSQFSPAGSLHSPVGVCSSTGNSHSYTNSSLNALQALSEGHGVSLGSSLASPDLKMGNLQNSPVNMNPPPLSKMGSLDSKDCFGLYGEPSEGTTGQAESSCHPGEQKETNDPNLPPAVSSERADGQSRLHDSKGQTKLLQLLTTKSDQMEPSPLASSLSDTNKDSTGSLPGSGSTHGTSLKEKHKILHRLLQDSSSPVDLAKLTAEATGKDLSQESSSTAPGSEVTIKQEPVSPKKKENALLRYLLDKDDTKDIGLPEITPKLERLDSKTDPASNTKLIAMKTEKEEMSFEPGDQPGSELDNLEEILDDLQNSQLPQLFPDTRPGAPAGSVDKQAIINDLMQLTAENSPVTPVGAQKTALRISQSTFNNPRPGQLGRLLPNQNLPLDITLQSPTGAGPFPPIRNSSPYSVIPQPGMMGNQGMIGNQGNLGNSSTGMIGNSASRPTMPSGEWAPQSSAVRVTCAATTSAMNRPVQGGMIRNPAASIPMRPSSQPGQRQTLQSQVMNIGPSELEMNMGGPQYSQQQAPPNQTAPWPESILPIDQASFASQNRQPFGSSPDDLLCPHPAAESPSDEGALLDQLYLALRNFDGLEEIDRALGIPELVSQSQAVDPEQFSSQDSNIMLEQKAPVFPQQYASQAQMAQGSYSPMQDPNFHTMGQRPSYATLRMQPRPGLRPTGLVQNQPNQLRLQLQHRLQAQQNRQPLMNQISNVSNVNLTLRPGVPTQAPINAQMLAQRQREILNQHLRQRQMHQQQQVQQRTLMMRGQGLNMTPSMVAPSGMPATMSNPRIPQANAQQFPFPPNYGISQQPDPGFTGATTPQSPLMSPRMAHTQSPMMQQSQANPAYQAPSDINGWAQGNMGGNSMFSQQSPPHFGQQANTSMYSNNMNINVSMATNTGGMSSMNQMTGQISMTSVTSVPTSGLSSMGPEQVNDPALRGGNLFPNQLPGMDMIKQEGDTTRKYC

EC50 [3] | EC50 [4] | EC50 [5] | Structure (SMILES) | further results
– | – | – | CCCn1c(=O)c2ccccc2n2c(SCCOc3ccccc3)nnc12 | EC50 [1]: 5.96 µM (active)
– | – | – | O=C(CSc1nc2sc3c(c2c(=O)n1-c1ccccc1)CCCC3)N/N=C/c1ccc(C(=O)O)cc1 | IC50 [2]: 25.9 µM (active)
> 79.4 µM (not active) | > 79.4 µM (inactive) | > 79.4 µM (not active) | Cn1c(=O)cc(SCC(=O)NCC2CCCO2)c2ccccc21 (stereo unspecified) | –
– | – | – | COc1ccc(O)c(CN2CCCC(C(=O)c3sccc3C)C2)c1 (stereo unspecified) | EC50 [1]: 3.35 µM (active)
– | – | – | O=C(OCC(=O)c1ccc(Cl)s1)c1ccc2ccccc2n1 | IC50 [6]: > 50 µM (inactive)
> 79.4 µM (not active) | > 2.94 µM (inactive) | 35.6 µM (not active) | CCOc1ccccc1-c1nnc(S)o1 | –
– | – | – | Fc1cccc(Nc2c3c(nc4ccccc24)CCC3)c1 | EC50 [1]: 1.19 µM (active)
– | – | – | CSCCNC(=O)c1ccc(OC2CCN(CCc3ccccc3)CC2)cc1 | EC50 [1]: 0.473 µM (active)
– | – | – | O=C(O)c1ccc(N=C(NS(=O)(=O)c2ccc(Cl)cc2)c2ccccc2)cc1 | IC50 [6]: > 50 µM (inactive)
> 79.4 µM (not active) | 17.5 µM (inactive) | 15.7 µM (not active) | CCOC(=O)c1ccc2c(c1)nc(S)n2CC | –
– | – | – | O=S(=O)(Nc1ccccc1)c1ccc(-c2csnn2)cc1 | IC50 [6]: > 50 µM (inactive)
– | – | – | Cc1ccc(S(=O)(=O)N2CCCOC2CNC(=O)C(=O)NCCc2c[nH]c3ccccc23)cc1 (stereo unspecified) | IC50 [7]: 86.8 µM (active)
> 79.4 µM (not active) | 22.9 µM (inactive) | 18.2 µM (not active) | COc1ccc(C(=O)C2=C(O)C(=O)N(c3cc(C)on3)C2c2ccccc2OC)cc1 (stereo unspecified) | –
– | – | – | O=C(CN1C(=O)c2cccc3cccc1c23)NCc1ccc2c(c1)OCO2 | IC50 [6]: > 50 µM (inactive)
> 79.4 µM (not active) | 84.9 µM (inactive) | 28.6 µM (not active) | COC(=O)c1c(N=C(S)Nc2ccccc2Cl)sc(C)c1C | –
– | – | – | COc1cc(/C=N/Nc2nc3ccccc3[nH]2)cc(OC)c1O | IC50 [7]: 7.09 µM (active)
– | – | – | O=[N+]([O-])c1cccc(-c2nnc(C3CC3)o2)c1 | EC50 [1]: 3.76 µM (active)
– | – | – | COc1ccc(Cl)cc1N=C(N)Nc1nc(C)cc(C)n1 | EC50 [1]: 2.11 µM (active)
– | – | – | C(=N\c1ccc(N2CCOCC2)cc1)/c1c[nH]c2ccccc12 | IC50 [7]: 4.34 µM (active)
16.3 µM (not active) | 3.6 µM (active) | 5.17 µM (active) | Cn1c(S)nnc1-c1sc2cc(C(F)(F)F)cnc2c1-c1ccccc1 | –
– | – | – | O=C(Cn1cnc2c(nnn2-c2cccc(Cl)c2)c1=O)NCc1ccccc1 | IC50 [2]: 8.16 µM (active)
> 79.4 µM (not active) | 42.6 µM (inactive) | 32.3 µM (not active) | c1ccc(-c2nc(-c3cccs3)[nH]c2-c2ccccc2)cc1 | –
